Assay: Acid dissociation constant (pKa) of the acid
Text: In this specification, the acid dissociation constant (pKa) of the acid is an index of acidity, and a common logarithm is employed as a reciprocal of the dissociation constant (Ka) of acid. That is, the acid dissociation constant (pKa) of the acid is obtained by measuring the dissociation constant Ka=[H3O^+] [B^−]/[BH] under a dilute aqueous solution condition and using a formula: pKa=−log Ka Incidentally, in the above formula, BH represents an organic acid and B^− represents a conjugate base of an organic acid. The measurement method of pKa is as follows: a hydrogen ion concentration is measured using a pH meter and pKa can be calculated from the concentration of the substance and the hydrogen ion concentration. Incidentally, in the case of polybasic acid, the pKa is a value calculated for the first Ka (pKa1).

Row | Structure (SMILES) | pKa (dilute aqueous solution) | pKa
1 | CCCCC(=O)O [Valeric acid] | 4.6 | 
2 | O=C(O)C(O)CO (centres unmarked) [Glyceric acid] | 3.4 | 
3 | CC(C)CC(O)C(=O)O (centres unmarked) [Leucine acid] |  | 3.9
4 | O=C(O)CC(O)C(=O)O (centres unmarked) [Malic acid] |  | 3.4
5 | CC(C)(O)C(=O)O [2-Hydroxyisobutyric acid] | 4.37 | 
